Source: patent US4521417A, “Geranylgeranylacetamide compounds having a piperazine ring, salts thereof, pharmaceutical compositions containing said compounds, and method of treating ulcers in mammals” (Nihon Iyakuhin Kogyo Co., Ltd., priority 1982, dated 1985)
Structures can show the parent of a compound that is named as a salt.

Assays:
ulcers = test: Pharmacological Test 3: indomethacine-induced ulcer in rats, drug oral, total ulcer length; format: in vivo, STD Wistar male rats; details: Rattus norvegicus, 10 minutes before indomethacine 40 mg/kg s.c., 7 hours, n=10 rats, read-out: Percent inhibition (total length of ulcers)
Procedure: Pharmacological tests were conducted on the above-mentioned known anti-ulcerogenic agents, the typical known anti-ulcerogenic compound of formula (A)-1 given hereinabove, and the compounds of formula (I) in accordance with this invention in order to examine their anti-ulcerogenic activities. In these pharmacological tests, the numbers attached to the compounds of this invention correspond to the numbers of Production Examples given hereinbelow. STD Wistar male rats (body weight 170 to 200 g) were caused to fast for 24 hours, and indomethacine dissolved in a 5% aqueous solution of sodium hydrogen carbonate was subcutaneously administered in a dose of 40 mg/kg. Seven hours later, the animals were autopsied. Each of the test drugs was administered orally to the stomach 10 minutes before administration of indomethacine. The total length of ulcers formed was compared with that in a control, and the percent inhibition was calculated.

ulcer = test: Pharmacological Test 1: pylorus-ligation ulcer in fasted rats, drug intraduodenal, ulcer area after 8 h; format: in vivo, STD Wistar-strain male rats; details: Rattus norvegicus, pylorus ligated, n=15 rats, read-out: Percent inhibition (ulcer area)
Procedure: (§1) Pharmacological tests were conducted on the above-mentioned known anti-ulcerogenic agents, the typical known anti-ulcerogenic compound of formula (A)-1 given hereinabove, and the compounds of formula (I) in accordance with this invention in order to examine their anti-ulcerogenic activities.
(§2) In these pharmacological tests, the numbers attached to the compounds of this invention correspond to the numbers of Production Examples given hereinbelow.
STD Wistar-strain male rats (body weight 170 to 200 g) were caused to fast for 72 hours, and then under ether anesthesia, were incised at the abdomen. The pylorus portion was ligated, and each of the test drugs was intraduodenally administered. The abdomen was closed and sewn. Eight hours later, the abdomen was cut open, and the stomach was taken out. The area of a generated ulcer was measured by a stereoscopic microscope, and the percent inhibition was calculated by comparison from a control to which the drug was not administered.

[1] = test system: ulcers generated in the stomach body; test: Pharmacological Test 2: water-immersion stress ulcer in rats, drug oral, total ulcer length; format: in vivo, STD Wistar-strain male rats; details: Rattus norvegicus, 1 hour before water immersion stress at 23±1° C., 18 hours, n=10 rats, read-out: Percent inhibition (total length of ulcers)
Procedure: as §1, §2
STD Wistar-strain male rats (body weight 170 to 200 g) were caused to fast for 30 hours, and put in a wire cage. They were immersed in a constant temperature water tank kept at 23±1° C. to their emsistermun. Eighteen hours later, the animals were taken out, and incised at the abdomen. The stomach was cut open and examined microscopically. One hour before applying stress to the animals by water immersion, each of the test drugs was orally administered. The total length of ulcers generated in the stomach body was compared with that in a control, and the rate of inhibiting ulcer formation was calculated.

| Compound | inhibition in vivo at 300 mg/kg (ulcers) | inhibition in vivo at 300 mg/kg (ulcer) | inhibition in vivo at 300 mg/kg [1] | inhibition in vivo at 200 mg/kg (ulcers) |
| --- | --- | --- | --- | --- |
| CC1(C)[C@@H](OC(=O)CCC(=O)O)CC[C@]2(C)[C@H]3C(=O)C=C4[C@@H]5C[C@@](C)(C(=O)O)CC[C@]5(C)CC[C@@]4(C)[C@]3(C)CC[C@@H]12 [Carbenoxolone sodium, glycyrrhetinic acid hydrogen succinate, disodium salt, reference compound] | 63.6% | 60.5% | 8.6% | – |
| NC[C@H]1CC[C@H](C(=O)Oc2ccc(CCC(=O)O)cc2)CC1 [Cetraxate hydrochloride, 4-(2-carboxyethyl)-phenyl-trans-4-aminomethylcyclohexanecarboxylate hydrochloride, reference compound] | 25.3% | 27.8% | 31.6% | – |
| CC(C)=CCCC(C)=CCCC(C)=CCCC(=O)N1CCN(C)CC1 [Comparative compound of formula (A)-1, reference compound] | 51.2% | 53.3% | 45.6% | – |
| CC(C)=CCC/C(C)=C/CC/C(C)=C/CC/C(C)=C/CCC(=O)N1CCNCC1 [Compound (1), N-geranylgeranylacetyl piperazine] | – | 68.2% | 73.8% | 66% |
| CC(C)=CCC/C(C)=C/CC/C(C)=C/CC/C(C)=C/CCC(=O)N1CCN(C)CC1 [Compound (2), N-methyl-N'-geranylgeranylacetyl piperazine] | – | 74.5% | 76% | 75.3% |
| CCN1CCN(C(=O)CC/C=C(\C)CC/C=C(\C)CC/C=C(\C)CCC=C(C)C)CC1 [Compound (3), N-ethyl-N'-geranylgeranylacetyl piperazine] | – | 70.1% | 68.7% | 62.1% |
| CCCN1CCN(C(=O)CC/C=C(\C)CC/C=C(\C)CC/C=C(\C)CCC=C(C)C)CC1 [Compound (4), N-n-propyl-N'-geranylgeranylacetyl piperazine] | – | 64.7% | 69% | 56.5% |
| CC(C)=CCC/C(C)=C/CC/C(C)=C/CC/C(C)=C/CCC(=O)N1CCN(C(C)C)CC1 [Compound (5), N-isopropyl-N'-geranylgeranylacetyl piperazine] | – | 66.5% | 64% | 60% |
| CCCCN1CCN(C(=O)CC/C=C(\C)CC/C=C(\C)CC/C=C(\C)CCC=C(C)C)CC1 [Compound (6), N-butyl-N'-geranylgeranylacetyl piperazine] | – | 66.5% | 60.6% | 55.3% |
| CCCCCN1CCN(C(=O)CC/C=C(\C)CC/C=C(\C)CC/C=C(\C)CCC=C(C)C)CC1 [Compound (7), N-n-amyl-N'-geranylgeranylacetyl piperazine] | – | 67.3% | 64.6% | 65.3% |
| C=CCN1CCN(C(=O)CC/C=C(\C)CC/C=C(\C)CC/C=C(\C)CCC=C(C)C)CC1 [Compound (8), N-allyl-N'-geranylgeranylacetyl piperazine] | – | 70.5% | 68.5% | 72.5% |
| CC(C)=CCC/C(C)=C/CC/C(C)=C/CC/C(C)=C/CCC(=O)N1CCN(CC=C(C)C)CC1 [Compound (9), N-prenyl-N'-geranylgeranylacetyl piperazine] | – | 64% | 59% | 57.2% |
| CC(C)=CCC/C(C)=C/CC/C(C)=C/CC/C(C)=C/CCC(=O)N1CCN(CCCCCl)CC1 [Compound (10), N-4-chlorobutyl-N'-geranylgeranylacetyl piperazine] | – | 65.3% | 67.3% | 70.2% |
| CC(C)=CCC/C(C)=C/CC/C(C)=C/CC/C(C)=C/CCC(=O)N1CCN(CCCBr)CC1 [Compound (11), N-3-bromopropyl-N'-geranylgeranylacetyl piperazine] | – | 66.8% | 65.3% | 65.6% |
| CC(C)=CCC/C(C)=C/CC/C(C)=C/CC/C(C)=C/CCC(=O)N1CCN(Cc2ccccc2)CC1 [Compound (12), N-benzyl-N'-geranylgeranylacetyl piperazine] | – | 64.9% | 61.1% | 62.1% |
| CC(C)=CCCC(C)=CCCC(C)=CCCC(C)=CCCC(=O)N1CCNC(C)C1 (stereo not drawn) [Compound (13), methyl-N-geranylgeranylacetyl piperazine] | – | 77.1% | 82.8% | 79.2% |
| CCC1CN(C(=O)CCC=C(C)CCC=C(C)CCC=C(C)CCC=C(C)C)CCN1 (stereo not drawn) [Compound (14)] | – | 71.5% | 70.2% | 73.5% |
| CC(C)=CCC/C(C)=C/CC/C(C)=C/CC/C(C)=C/CCC(=O)N1C(C)CNCC1C (stereo not drawn) [Compound (15), 2,6-dimethyl-N-geranylgeranylacetyl piperazine] | – | 80% | 80% | 77.2% |
| CC(C)=CCCC(C)=CCCC(C)=CCCC(=O)OC/C=C(\C)CCC=C(C)C [Gefarnate, geranyl farnesylacetate, reference compound] | 33.1% | 30% | 23.6% | – |
